Experimental data taken from PubChem BioAssay AID1159586 (Gregory J. Crowther, 2016).

target: Plasmodium falciparum protein kinase 6 (PK6, PF3D7_1337100) (UniProt Q8IDW1); test: PfPK6 kinase inhibitors, biochemical, TCAMS library (AID 1159586); conditions: recombinant PfPK6, Kinase-Glo ATP depletion luminescence
Sequence (Q8IDW1 1-305): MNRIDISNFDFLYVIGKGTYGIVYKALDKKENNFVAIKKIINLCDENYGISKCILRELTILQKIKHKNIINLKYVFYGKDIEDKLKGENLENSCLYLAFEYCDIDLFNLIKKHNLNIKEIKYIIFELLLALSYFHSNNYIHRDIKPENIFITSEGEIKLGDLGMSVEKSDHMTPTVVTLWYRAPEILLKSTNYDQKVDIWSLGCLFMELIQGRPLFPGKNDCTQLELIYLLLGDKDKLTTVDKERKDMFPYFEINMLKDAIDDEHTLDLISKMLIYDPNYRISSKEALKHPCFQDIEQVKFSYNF

| Compound | IC50 [nM] |
| --- | --- |
| CNC(=O)c1ccccc1Nc1nc(Nc2cccc(CS(C)(=O)=O)c2)ncc1C | 133 |
| Cn1nc(-c2ccc(NC(=O)Nc3ccc4ccccc4c3)c(F)c2)c2cnc(NCCN3CCOCC3)nc21 | 860 |
| CC(=O)Nc1nc(C)c(-c2csc(Nc3ccc(Cl)cc3)n2)s1 | 95 |
| Cc1cc(Nc2ncc(Cl)c(Nc3ccccc3C(N)=O)n2)n[nH]1 | 129 |
| CS(=O)(=O)Cc1ccc(Nc2nccc(-c3c(-c4cccc(C(=O)Nc5c(F)cccc5F)c4)nn4ccccc34)n2)cc1 | 105 |
| CN(C)Cc1cccc(-c2cc3c(-c4cnn(C)c4)c(Cl)cnc3[nH]2)c1 | 128 |
| O=C(Nc1cccc(-c2nn3ccccc3c2-c2ccnc(Nc3ccc(NCCCN4CCOCC4)c(F)c3)n2)c1)c1c(F)cccc1F | 580 |
| COc1ccc(Nc2ncc3c(-c4cccc(NC(=O)Cc5ccc(O)cc5)c4)c[nH]c3n2)cc1OC | 445 |
| CCN(CC)CCOc1ccc(Nc2ncc3cc(-c4c(Cl)cccc4Cl)c(=O)n(C)c3n2)cc1 | 350 |
| CN(c1ccc(NC(=O)Nc2cccc(Cl)c2)cc1)c1ccnc(N)n1 | 402 |
| COc1c(CN2CCCC2)cccc1-c1cc2c(-c3ccc(C(=O)O)c(C(C)C)c3)ccnc2[nH]1 | 541 |
| CN1CCN(c2ccc(Nc3nccc(-c4cnn5ncccc45)n3)cc2Cl)CC1 | 179 |
| NCCNS(=O)(=O)c1ccc(-c2ccnc3[nH]c(-c4ccncc4)cc23)cc1 | 207 |
| CS(=O)(=O)Cc1ccc(Nc2nccc(N3CCCc4cc(NC(=O)Nc5cccc(C(F)(F)F)c5)ccc43)n2)cc1 | 385 |
| CN(c1ccc2c(c1)nc(NCc1ccccc1)n2C)c1ccnc(Nc2ccc(CS(C)(=O)=O)cc2)n1 | 464 |
| COc1cccc(-n2ncc3c(N/N=C/c4ccc(CN(C)CCN(C)C)cc4)ncnc32)c1 | 58 |

| Compound | IC50 [nM] |
| --- | --- |
| CNC(=O)c1ccccc1Nc1nc(Nc2ccc(N3CCN(C)CC3)nc2)ncc1C | 143 |
| COc1ccc(Nc2ncc(Cl)c(Nc3cccnc3C(N)=O)n2)cc1N1CCN(C)CC1 | 86 |
| CCN(CC)CCNC(=O)c1ccc(Nc2ncc([N+](=O)[O-])c(Nc3ccccc3OC)n2)cc1 | 110 |
| NS(=O)(=O)c1cccc(Nc2nccc(-c3cnn4ncccc34)n2)c1 | 246 |
| CS(=O)(=O)Cc1cccc(Nc2ncc(Cl)c(Nc3cccnc3C(N)=O)n2)c1 | 74 |
| Cc1ccc(S(=O)(=O)Nc2ccc(Nc3nccc(Nc4cccc5[nH]ncc45)n3)cc2)cc1 | 823 |
| CCN(CC)CCNc1nccc(N(C)c2ccc(NC(=O)Nc3cc(C(F)(F)F)ccc3F)cc2)n1 | 917 |
| CC(=O)Nc1cccc(Nc2nccc(-c3c(-c4cccc(NC(=O)c5c(F)cccc5F)c4)nn4ncccc34)n2)c1 | 144 |
| Cn1cnc2c(Nc3ccncc3)nc(-c3ccc4c(c3)OCO4)nc21 | 500 |
| NC(=O)c1ccccc1Nc1nc(Nc2cccc(N3CCN(CCO)CC3)c2)ncc1Cl | 80 |
| COc1ccc(Nc2ncc(OC)c(Nc3ccccc3C(N)=O)n2)cc1N1CCN(C)CC1 | 270 |
| C(=N\Nc1nccc2sc(-c3ccccc3)cc12)/c1cccnc1 | 278 |
| Cc1cc(Nc2nc(Nc3cccc(Cl)c3)nc3ccccc23)n[nH]1 | 151 |
| O=c1[nH]ccc2nc(N[C@@H]3CCCNC3)nc(Nc3ccc(S(=O)(=O)N4CCOCC4)cc3)c12 | 115 |
| CS(=O)(=O)Cc1ccc(Nc2nccc(-c3c(-c4cccc(NC(=O)C5CCCCC5)c4)nn4ncccc34)n2)cc1 | 139 |

Continued by falling IC50, values first:

| IC50 [nM] | Compound |
| --- | --- |
| 931 | NCCNC(=O)c1ccc(-c2cnc3[nH]cc(-c4ccc(C(N)=O)cc4)c3c2)cc1 |
| 844 | CN(c1ccc2c(c1)nc(NCc1ccc(F)cc1)n2C)c1ccnc(Nc2ccc(CS(C)(=O)=O)cc2)n1 |
| 705 | CCN(CC)CCCNc1nccc(N(C)c2ccc(NC(=O)Nc3cc(C(F)(F)F)ccc3F)cc2)n1 |
| 695 | COc1c(CN2CCOCC2)cccc1-c1cc2c(-c3ccc(C(=O)O)c(C(C)C)c3)ccnc2[nH]1 |
| 691 | CS(=O)(=O)Cc1ccc(Nc2ncc(Cl)c(Nc3cccnc3C(N)=O)n2)cc1 |
| 602 | CN1CCC(NC(=O)c2cccc(Nc3cc(Nc4cccc(Br)c4)ncn3)c2)CC1 |
| 520 | CN(c1ccc(NC(=O)Nc2cc(C(F)(F)F)ccc2F)cc1)c1ccnc(NCCN2CCOCC2)n1 |
| 413 | N=C(N)c1ccc(Nc2nccc(Nc3nc(-c4ccccc4)cs3)n2)cc1 |
| 375 | CN(c1ccc(NC(=O)Nc2cc(C(C)(C)C)on2)cc1)c1ccnc(NCCN2CCOCC2)n1 |
| 375 | CC(c1cccc(Nc2nccc(-c3c(-c4cccc(NC(=O)c5c(F)cccc5F)c4)nn4ncccc34)n2)c1)S(C)(=O)=O (centres undefined) |
| 335 | Nc1ncnc2occ(-c3ccc(NC(=O)Nc4cc(C(F)(F)F)ccc4F)cc3)c12 |
| 302 | CCN(CC)CCCOc1ccc(Nc2nccc(-c3c(-c4cccc(NC(=O)c5c(F)cccc5F)c4)nn4ccccc34)n2)cc1F |
| 276 | CS(=O)(=O)Cc1ccc(Nc2nccc(-c3c(-c4cccc(NC(=O)c5c(F)cccc5F)c4)nn4ccccc34)n2)cc1 |
| 269 | CCNC(=O)Nc1ccc(N(C)c2ccnc(Nc3ccc(CS(C)(=O)=O)cc3)n2)cc1 |
| 265 | O=S1(=O)NCc2ccc(Nc3nccc(Nc4ccc5c(cnn5Cc5ccccc5)c4)n3)cc21 |
| 229 | Cc1ccc(Nc2nc3cc(Nc4ccnc(Nc5cccc(CS(C)(=O)=O)c5)n4)ccc3o2)cc1 |
| 206 | Nc1ncc(-c2cccc(F)c2)cc1-c1nc2ccc(F)cc2[nH]1 |

| IC50 [nM] | Compound |
| --- | --- |
| 201 | N#Cc1cnc(Nc2ccc(Oc3ccccc3)cc2)nc1Nc1cccc(S(N)(=O)=O)c1 |
| 181 | C#CCNC(=O)c1ccc(-c2ccnc(Nc3cccc(CCCN4CCOCC4)c3)n2)s1 |
| 177 | Cn1cc(-c2ccnc3[nH]c(-c4cccc(CNC5CCC(O)CC5)c4)cc23)cn1 (centres undefined) |
| 167 | O=C(Cc1ccc(Nc2nccc(Nc3cccc4[nH]ncc34)n2)cc1)Nc1ccc(C(F)(F)F)cc1 |
| 164 | N=C(N)c1ccc(Nc2nc(Nc3ccc(-c4ccccc4)cc3)ncc2[N+](=O)[O-])cc1 |
| 145 | Cn1c(=O)c(-c2c(Cl)cccc2Cl)cc2cnc(Nc3ccc(N4CCOCC4)cc3)nc21 |
| 140 | NS(=O)(=O)c1ccc(Nc2nccc(-c3c(-c4cccc(NC(=O)c5c(F)cccc5F)c4)nn4ccccc34)n2)cc1 |
| 138 | CC(=O)c1ccc(NC(=O)Nc2ccc(N(C)c3ccnc(Nc4cccc(CS(C)(=O)=O)c4)n3)cc2)cc1 |
| 128 | CC(=O)Nc1ccc(Nc2ncc([N+](=O)[O-])c(Nc3ccccc3C(N)=O)n2)cc1 |
| 122 | Cc1ccc(Nc2ccnc(Nc3ccc4c(c3)CS(=O)(=O)C4)n2)cc1O |
| 89 | CN1CCN(c2ccc(Nc3ncc(C#N)c(Nc4ccccc4C(N)=O)n3)cc2)CC1 |
| 70 | CNC(=O)c1ccccc1Nc1nc(Nc2ccc(CCN3CCN(C)CC3)cc2)ncc1Cl |
| 67 | CN(C)CC(O)COc1ccc(Nc2ncc([N+](=O)[O-])c(Nc3ccccc3O)n2)cc1 (centres undefined) |
| 61 | COc1ccc(Nc2ncc(C#N)c(Nc3ccccc3C(N)=O)n2)cc1N1CCN(C)CC1 |
| 54 | Cc1cc(Nc2ncc(C#N)c(Nc3ccccc3C(N)=O)n2)ccc1N1CCN(C)CC1 |
| 42 | CNC(=O)c1ccccc1Nc1nc(Nc2ccc(N3CCOCC3)cc2)ncc1Cl |
